Broadly, the melting point is the temperature of the solid-liquid transition.

Molecules are shown by their SMILES.

Take `CN1COc2c(N3CCC(Nc4ncns4)C3)c(F)cc3c(=O)c(C(=O)O)cn1c23` (stereo not shown) (hydrate or solvate): the melting point is 285 °C (dec.).
Next, `Cc1nc(NC2CCN(c3c(F)cc4c(=O)c(C(=O)O)cn5c4c3OCN5C)C2)sc1C` (stereo not shown) (hydrate or solvate): 266 °C (dec.).
Consider `Cc1csc(NC2CCN(c3c(F)cc4c(=O)c(C(=O)O)cn5c4c3OCN5C)C2)n1` (stereo not shown) (hydrate or solvate), for which the melting point is 260 °C (dec.).
The same measure for `Cc1cnc(NC2CCN(c3c(F)cc4c(=O)c(C(=O)O)cn5c4c3OCN5C)C2)s1` (stereo not shown) (hydrate or solvate): 265 °C (dec.).
In the case of `Cc1cc(NC2CCN(c3c(F)cc4c(=O)c(C(=O)O)cn5c4c3OCN5C)C2)sn1` (stereo not shown) (hydrate or solvate), the melting point stood at 265 °C.
Next, `Cc1cc(NC2CCN(c3c(F)cc4c(=O)c(C(=O)O)cn5c4c3OCN5C)C2)on1` (stereo not shown) (hydrate or solvate): 244 °C (dec.); `Cc1cc(NC2CCN(c3c(F)cc4c(=O)c(C(=O)O)cn5c4c3OCN5C)C2)no1` (stereo not shown) (hydrate or solvate): 263 °C (dec.); `CN1COc2c(N3CCC(CN(c4cnccn4)c4cnccn4)C3)c(F)cc3c(=O)c(C(=O)O)cn1c23` (stereo not shown) (hydrate or solvate): 213 to 215 °C.
`CN1COc2c(N3CCC(NC4=NCCS4)C3)c(F)cc3c(=O)c(C(=O)O)cn1c23` (stereo not shown) (hydrate or solvate) returned a melting point of 265 to 267 °C.
Consider `CN1COc2c(N3CCC(n4ccnn4)C3)c(F)cc3c(=O)c(C(=O)O)cn1c23` (stereo not shown) (hydrate or solvate), for which the melting point was 264 °C (dec.).
In the case of `CN1COc2c(N3CCC(c4nnn[nH]4)C3)c(F)cc3c(=O)c(C(=O)O)cn1c23` (stereo not shown) (hydrate or solvate), the melting point is 250 °C (dec.).
Next, `CN1COc2c(N3CCC(NC(=O)c4ccco4)C3)c(F)cc3c(=O)c(C(=O)O)cn1c23` (stereo not shown) (hydrate or solvate): 306 to 308 °C.
On to `CN1COc2c(N3CCC(NC(=O)CC(F)(F)F)C3)c(F)cc3c(=O)c(C(=O)O)cn1c23` (stereo not shown) (hydrate or solvate), for which the melting point was 292 °C (dec.).
Next, `CN1COc2c(N3CCC(NS(C)(=O)=O)C3)c(F)cc3c(=O)c(C(=O)O)cn1c23` (stereo not shown) (hydrate or solvate): 261 °C (dec.); `CN1COc2c(N3CC(O)C(C)(C)C3)c(F)cc3c(=O)c(C(=O)O)cn1c23` (stereo not shown) (hydrate or solvate): 281 °C (dec.); `CN1COc2c(N3CCC(O)(c4nccs4)C3)c(F)cc3c(=O)c(C(=O)O)cn1c23` (stereo not shown) (hydrate or solvate): 252 to 253 °C.
Turning to `CN1COc2c(N3CCC(CNc4nccs4)C3)c(F)cc3c(=O)c(C(=O)O)cn1c23` (stereo not shown) (hydrate or solvate), the melting point was in the range of 268 to 270 °C.
For the molecule `CN1COc2c(N3CCC(Nc4cnccn4)CC3)c(F)cc3c(=O)c(C(=O)O)cn1c23` (hydrate or solvate), the melting point was 239 °C (dec.).
`CN1COc2c(N3CCC(Nc4ccccn4)CC3)c(F)cc3c(=O)c(C(=O)O)cn1c23` (hydrate or solvate): the melting point was 264 °C (dec.).
The same measure for `CN1COc2c(N3CCC(Nc4nccs4)CC3)c(F)cc3c(=O)c(C(=O)O)cn1c23` (hydrate or solvate): 280 °C; for `CN1COc2c(N3CCC(NC(=O)c4ccco4)CC3)c(F)cc3c(=O)c(C(=O)O)cn1c23` (hydrate or solvate): 293 to 295 °C; for `CN1COc2c(N3CCC(N4CCCCC4)CC3)c(F)cc3c(=O)c(C(=O)O)cn1c23` (hydrate or solvate): 249 °C (dec.).
The molecule `CN1COc2c(N3CCC(N4CCCC4)CC3)c(F)cc3c(=O)c(C(=O)O)cn1c23` (hydrate or solvate) showed a melting point of 267 to 269 °C.
Consider `CN1COc2c(N3CC[C@H](NC(=O)C(F)(F)F)C3)ccc3c(=O)c(C(=O)O)cn1c23` (hydrate or solvate), for which the melting point is 310 °C (dec.).
Consider `CN1COc2c(N3CC[C@@H](Nc4nccs4)C3)ccc3c(=O)c(C(=O)O)cn1c23` (hydrate or solvate), for which the melting point was 275 °C (dec.).
In turn, `Cc1nnc(NCC2CCN(c3c(F)cc4c(=O)c(C(=O)O)cn5c4c3OCN5C)C2)o1` (stereo not shown) (hydrate or solvate) had a melting point of 240 °C.
`CC1Oc2c(N3CC[C@H](NC(=O)C(F)(F)F)C3)ccc3c(=O)c(C(=O)O)cn(c23)N1C` (stereo partly shown) (hydrate or solvate) came in with a melting point of 260 °C.
Next, `CC1Oc2c(N3CC[C@@H](Nc4nccs4)C3)c(F)cc3c(=O)c(C(=O)O)cn(c23)N1C` (stereo partly shown) (hydrate or solvate): 224 to 226 °C.
`CN1n2cc(C(=O)O)c(=O)c3cc(F)c(N4CC[C@@H](Nc5nccs5)C4)c(c32)OC1(C)C` (hydrate or solvate) came in with a melting point of 235 to 237 °C.
With `CN1n2cc(C(=O)O)c(=O)c3ccc(N4CC[C@@H](Nc5nccs5)C4)c(c32)OC1(C)C` (hydrate or solvate), the melting point is 287 °C (dec.).
The same measure for `CC1Oc2c(N3C[C@H](N)C(C)(C)C3)c(F)cc3c(=O)c(C(=O)O)cn(c23)N1C` (stereo partly shown) (hydrate or solvate): 212 to 214 °C; for `CN1COc2c(N3CCC(CNC(=O)c4ccco4)C3)c(F)cc3c(=O)c(C(=O)O)cn1c23` (stereo not shown) (hydrate or solvate): 278 to 280 °C; for `CN1n2cc(C(=O)O)c(=O)c3cc(F)c(N4C[C@H](N)C(C)(C)C4)c(c32)OC1(C)C` (hydrate or solvate): 255 to 257 °C.
`CN1COc2c(N3C[C@@H](Nc4nccs4)C(C)(C)C3)c(F)cc3c(=O)c(C(=O)O)cn1c23` (hydrate or solvate): the melting point was 265 °C (dec.).
`CN1COc2c(N3C[C@H](Nc4nccs4)C(C)(C)C3)c(F)cc3c(=O)c(C(=O)O)cn1c23` (hydrate or solvate) showed a melting point of 271 to 273 °C.
Molecule `Cc1cc(N[C@@H]2CCN(c3c(F)cc4c(=O)c(C(=O)O)cn5c4c3OCN5C)C2)on1` (hydrate or solvate) came in with a melting point of 255 to 257 °C.
`Cc1cc(N[C@H]2CCN(c3c(F)cc4c(=O)c(C(=O)O)cn5c4c3OCN5C)C2)on1` (hydrate or solvate): the melting point fell in the range of 255 to 257 °C.
With `CN1COc2c(N3CC[C@H](Nc4ncc[nH]4)C3)c(F)cc3c(=O)c(C(=O)O)cn1c23` (hydrate or solvate), the melting point is 245 °C (dec.).
As for `CN1COc2c(N3CC[C@@H](Nc4ncc[nH]4)C3)c(F)cc3c(=O)c(C(=O)O)cn1c23` (hydrate or solvate), the melting point was 225 °C (dec.).
The same measure for `CN(c1nccs1)[C@@H]1CCN(c2c(F)cc3c(=O)c(C(=O)O)cn4c3c2OCN4C)C1` (hydrate or solvate): 222 to 224 °C; for `CN1COc2c(N3CC(N)C(c4nccs4)C3)c(F)cc3c(=O)c(C(=O)O)cn1c23` (stereo not shown) (hydrate or solvate): 240 to 245 °C; for `CN1COc2c(N3CC[C@@H](Nc4cnccn4)C3)c(F)cc3c(=O)c(C(=O)O)cn1c23` (hydrate or solvate): 255 °C (dec.).
`Cc1nnc(NC2CCN(c3c(F)cc4c(=O)c(C(=O)O)cn5c4c3OCN5C)C2)o1` (stereo not shown) (hydrate or solvate) yielded a melting point of 285 °C.

The record behind these values is patent publication US7713965B2, “7-substituted 3-carboxy-oxadiazino-quinolone derivatives, their preparation and their application as anti-bacterials” (Vetoquinol SA, priority 2008, dated 2010).
